In patent US5066655A (priority 1989, dated 1991):

Experiments:
[1] = test system: A2 adenosine receptor (guinea pig taenia caecum); assay: Antagonism of adenosine agonists in isolated guinea pig taenia caecum (contractile tone); conditions: for antagonism of adenosine agonists in taenia caecum: guinea pig taenia caecum relaxation; for sensitization of the tissue: guinea pig taenia caecum, high concentrations
Method: Taenia from the guinea pig caecum were cut into lengths of 1.5-2 cm. The tissues were suspended in a 20 ml organ bath containing de Jalon's solution that was gassed with 95% O2 + 5% CO2 and maintained at 31° C. The resting tension was 1.5 g. The contractile response was measured isotonically.
(§1) The ability of the compounds to antagonize the effects of agonists was analyzed using modified Schild plots.

[2] = target: T1, A1 adenosine receptor (guinea pig atrium) (Cavia porcellus, UniProt P47745); assay: Antagonism of adenosine agonists in isolated guinea pig left atrium (force of contraction); conditions: for antagonism of adenosine agonists in atria: guinea pig atria, result in words
T1 construct: The left atria from male guinea pigs were isolated; from tissue; host or cells: left atria of male guinea pigs
T1 sequence (P47745 1-326): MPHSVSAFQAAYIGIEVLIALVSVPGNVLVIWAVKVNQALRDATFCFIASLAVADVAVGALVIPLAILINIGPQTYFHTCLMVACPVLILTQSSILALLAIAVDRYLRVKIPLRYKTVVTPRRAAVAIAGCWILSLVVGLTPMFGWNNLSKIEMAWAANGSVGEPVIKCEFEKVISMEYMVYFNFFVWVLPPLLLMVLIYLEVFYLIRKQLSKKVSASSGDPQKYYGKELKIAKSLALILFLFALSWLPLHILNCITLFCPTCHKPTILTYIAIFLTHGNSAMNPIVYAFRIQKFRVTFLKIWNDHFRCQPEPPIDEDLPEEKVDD
Method: The left atria from male guinea pigs were isolated, suspended between two punctate electrodes, and placed in a 20 ml organ bath that contained Krebs-Hensileit solution that was continuously gassed with 95% O2 + 5% CO2 and maintained at 31° C. The resting tension was one gram. Theatria were stimulated electrically at 1 hz, 1 ms duration pulses at supramaximal voltage. The force of contraction was recorded isometrically.
as §1

[3] = test system: adenosine receptors (A1: heart rate; A2: blood pressure); assay: In vivo test on heart rate, blood pressure and ECG in anesthetized rats; parameters: species or system rat
Description: Drug injections were made intravenously through a jugular cannula.

coronary A2 receptors = conditions: cited from earlier work
[4] = test system: A2 receptors of rat pheochromocytoma (PC12) cells; assay: Antagonism of NECA-induced stimulation of adenylate cyclase activity of PC12 cell membranes; assay type: biochemical; conditions: NECA-stimulated adenylate cyclase, result in words
Method: (§2) Human platelet, rat pheochromocytoma (PC12) cell, rat fat cell and rat cerebral cortex membranes were prepared as described (4,5,6). Adenylate cyclase activity and binding [^3 H]PIA to cerebral cortex membranes were determined essentially as described (4,5,6). KB values for the compounds were determined as described (4). […] EC50 and IC50 values for the agonists were obtained from the concentration-response curves by linear regression after logit-log transformation. KB values of the antagonists were calculated using the Schild equation KB =C/(CR-1), where C denotes the concentration of the competitor and CR the ratio of the EC50 and IC50 values in the presence and absence, respectively, of the competitor. IC50 of the compounds for inhibition of [^3 H]PIA binding to cerebral cortex membranes were transformed into Ki values as described (6).

[5] = target: T2, A2 receptors of human platelets (Homo sapiens, UniProt P29274); assay: Antagonism of NECA-induced stimulation of adenylate cyclase activity of human platelet membranes; assay type: biochemical; conditions: for antagonist potency at platelet A2 receptor: human platelet membranes, NECA-stimulated adenylate cyclase, result in words
T2 sequence (P29274 whole entry): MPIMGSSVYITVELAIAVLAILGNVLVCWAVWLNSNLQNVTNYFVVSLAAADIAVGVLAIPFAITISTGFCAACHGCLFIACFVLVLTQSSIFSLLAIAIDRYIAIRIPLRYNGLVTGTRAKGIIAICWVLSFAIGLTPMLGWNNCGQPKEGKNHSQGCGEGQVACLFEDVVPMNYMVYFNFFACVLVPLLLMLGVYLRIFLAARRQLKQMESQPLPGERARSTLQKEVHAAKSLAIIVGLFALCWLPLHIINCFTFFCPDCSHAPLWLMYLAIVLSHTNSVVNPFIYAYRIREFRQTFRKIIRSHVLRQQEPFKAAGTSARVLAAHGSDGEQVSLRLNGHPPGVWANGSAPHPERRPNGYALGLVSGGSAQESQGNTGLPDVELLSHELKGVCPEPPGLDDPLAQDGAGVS
Method: as §2
In these cells, A2 receptor-mediated stimulation of adenylate cyclase results in an inhibition of aggregation (5,7).

[6] = test system: adenosine receptor in human fibroblast cell line; conditions: cited from earlier work
[7] = target: T3, A1 receptors of rat fat cells (Rattus norvegicus, UniProt P25099); assay: Antagonism of R-PIA-induced inhibition of rat fat cell adenylate cyclase activity; assay type: biochemical; conditions: rat fat cell membranes, result in words
T3 sequence (P25099 1-326): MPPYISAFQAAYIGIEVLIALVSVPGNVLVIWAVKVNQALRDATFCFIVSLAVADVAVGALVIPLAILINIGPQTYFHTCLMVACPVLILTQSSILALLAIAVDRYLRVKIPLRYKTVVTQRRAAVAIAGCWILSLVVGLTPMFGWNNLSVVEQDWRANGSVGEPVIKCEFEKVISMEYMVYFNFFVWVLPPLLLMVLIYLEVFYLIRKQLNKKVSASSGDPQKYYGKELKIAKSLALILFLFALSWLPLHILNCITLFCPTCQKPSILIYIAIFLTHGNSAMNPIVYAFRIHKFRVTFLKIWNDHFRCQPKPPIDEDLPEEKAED
Method: as §2

A1 receptors = target: T4, A1 receptors (Rattus norvegicus, UniProt P25099); assay: Activity at A1 adenosine receptors (overall, fat cells and brain membranes); assay type: biochemical; conditions: discussion, fat cell and brain data
T4 sequence (P25099 1-326): T3 sequence (P25099 1-326)
Method: as §2

[8] = test system: A1 and A2 adenosine receptors; assay: Activity at adenosine receptors, A1 versus A2 selectivity (overall); assay type: biochemical; conditions: in words
Method: as §2

[9] = target: T5, A1 receptors of rat cerebral cortex membranes (Rattus norvegicus, UniProt P25099); assay: Inhibition of [3H]PIA binding to rat cerebral cortex membranes
T5 sequence (P25099 1-326): T3 sequence (P25099 1-326)
Method: as §2

A2 receptors = conditions: literature; cited from earlier work
A1 adenosine receptors = conditions: literature; cited from earlier work
[10] = target: T2, A2 receptors of human platelets; conditions: cited from earlier work
[11] = test system: A2 receptors of PC12 cells; conditions: cited from earlier work

Structure (SMILES): Cn1cnc2c(N[C@H]3C[C@H]4CC[C@@H]3C4)ncnc21 (relative stereo) [Example 22, N^6-(endonorbornyl)-9-MA]
- antagonism of adenosine agonists in taenia caecum [1]: did not competitively antagonize the effects of adenosine agonists
- sensitization of the tissue [1]: some sensitization of the tissue
- antagonism of adenosine agonists in atria [2]: competitive antagonists
- antagonism of adenosine agonists in atria ([2]; listed as Ex. 22): most potent antagonist
- Kb ([2]; read-out: Affinity constants (pKB) (converted)): 0.525 µM
- cardioselectivity in vivo [3]: cardioselective adenosine receptor antagonist in vivo
- effect on adenosine-induced changes of blood pressure, heart rate and P-R interval ([3]; i.v.): attenuated the effects of subsequently administered adenosine on all parameters measured
- effect on adenosine-induced heart block ([3]; i.v., high doses of adenosine): substantially reduced
- effect on NECA action on the heart ([3]; i.v., prior administration): attenuated the effects of NECA on the heart
- effect on NECA-induced decrease in blood pressure ([3]; i.v., prior administration): minimally affecting the NECA-induced decrease in blood pressure

Structure (SMILES): OC[C@H]1O[C@@H](n2cnc3c(Oc4ccccc4)ncnc32)[C@H](O)[C@@H]1O [6-phenoxypurine riboside]
- activity at coronary A2 receptors (coronary A2 receptors): inactive or nearly so

Structure (SMILES): Nc1ncnc2nc[nH]c12 [Example 1, Adenine, reference compound]
- antagonist potency at A2 receptor of PC12 cells [4]: very weak antagonist
- antagonist potency at platelet A2 receptor [5]: very weak antagonist
- effect on basal adenylate cyclase activity ([5]; human platelets, data not shown): does not affect basal adenylate cyclase activity
- specific, competitive antagonism of cyclic AMP accumulation ([6]; adenosine-induced, human fibroblast cell line): specific, competitive antagonist
- Ki ([6]; competitive antagonism of adenosine-induced cyclic AMP accumulation, human fibroblast cell line): 200 µM
- antagonist potency at A1 receptors of fat cells [7]: does not affect R-PIA-induced inhibition of fat cell adenylate cyclase activity

Structure (SMILES): Cn1cnc2c(N)ncnc21 [Example 2, 9-Methyladenine, reference compound]
- antagonist potency at platelet A2 receptor [5]: more potent than the adenine itself
- potency increase by methylation of adenine at the 9-position ([6]; relative to adenine): about 4 fold
- antagonist potency at A1 receptors of fat cells [7]: antagonizes the effect of R-PIA

Structure (SMILES): Cn1cnc2c(NC3CCC3)ncnc21 [Example 3, N^6 -Cyclobutyl-9-MA]
- antagonist potency at platelet A2 receptor [5]: more potent than 9-methyladenine itself
- activity at A1 receptors, in words (A1 receptors): most potent of N^6 -substituted 9-methyladenines at A1 receptors
- receptor selectivity A1 versus A2 [8]: selective for receptors
- antagonist potency at A1 receptors of fat cells [7]: more potent than the parent compound 9-methyladenine

Structure (SMILES): Cn1cnc2c(NC3CCCC3)ncnc21 [Example 4, N^6 -Cyclopentyl-9-MA]
- antagonism of adenosine agonists in taenia caecum [1]: did not competitively antagonize the effects of adenosine agonists
- sensitization of the tissue [1]: some sensitization of the tissue
- antagonist potency at platelet A2 receptor [5]: more potent than 9-methyladenine itself
- potency at platelet A2 receptor relative to PC12 A2 receptor ([5]; human platelets versus rat PC12 cells): more potent at the platelet A2 receptor than at the PC12 A2 receptor
- activity at A1 receptors, in words (A1 receptors): most potent of N^6 -substituted 9-methyladenines at A1 receptors
- antagonism of adenosine agonists in atria [2]: competitive antagonists
- potency at adenosine receptors (subtype not stated) [8]: more potent than 9-methyladenine
- receptor selectivity A1 versus A2 ([8]; listed as N^6 -Cyclopentyl): selective for A1 receptors
- receptor selectivity A1 versus A2 ([8]; listed as cyclopentyl-): selective for receptors
- antagonist potency at A1 receptors of fat cells [7]: more potent than the parent compound 9-methyladenine
- inhibition of [3H]PIA binding (Ki), in words [9]: more potent

Structure (SMILES): Cn1cnc2c(NC3(C)CCCC3)ncnc21 [Example 5, N^6 -Methylcyclopentyl-9-MA]
- antagonist potency at A2 receptor of PC12 cells [4]: reduces potency in PC12 cells
- antagonist potency at platelet A2 receptor [5]: less potent than the parent cyclopentyl analog
- activity at A1 receptors, in words (A1 receptors): reduces activity at A1 receptors
- receptor selectivity A1 versus A2 [8]: selective for receptors
- antagonist potency at A1 receptors of fat cells [7]: less potent

Structure (SMILES): Cn1cnc2c(NC3CCCCC3)ncnc21 [Example 6, N^6 -Cyclohexyl-9-MA]
- antagonist potency at platelet A2 receptor [5]: more potent than 9-methyladenine itself
- activity at A1 receptors, in words (A1 receptors): most potent of N^6 -substituted 9-methyladenines at A1 receptors
- receptor selectivity A1 versus A2 [8]: selective for receptors
- antagonist potency at A1 receptors of fat cells [7]: more potent than the parent compound 9-methyladenine

Structure (SMILES): CCNC(=O)[C@H]1O[C@@H](n2cnc3c(N)ncnc32)[C@H](O)[C@@H]1O [NECA, 5'-N-ethylcarboxamido-adenosine]
- potency at A2 receptors, in words (A2 receptors): more potent than N^6 -substituted analogs at A2 receptors

Structure (SMILES): OC[C@H]1O[C@@H](n2cnc3c(NCc4ccccc4)ncnc32)[C@H](O)[C@@H]1O [N^6 -benzyladenosine]
- affinity/activity at A1 receptors, in words (A1 adenosine receptors): low activity
- agonist potency at platelet A2 receptors, in words [10]: more potent of the N^6 -substituted adenosines

Structure (SMILES): OC[C@H]1O[C@@H](n2cnc3c(NC4CCC4)ncnc32)[C@H](O)[C@@H]1O [N^6 -cyclobutyl-]
- agonist potency at platelet A2 receptors, in words [10]: more potent of the N^6 -substituted adenosines
- agonist potency at PC12 A2 receptors, in words [11]: more potent of the series

Structure (SMILES): OC[C@H]1O[C@@H](n2cnc3c(NC4CCCCC4)ncnc32)[C@H](O)[C@@H]1O [N^6 -cyclohexyl-]
- agonist potency at PC12 A2 receptors, in words [11]: more potent of the series

Structure (SMILES): CNc1ncnc2c1ncn2[C@@H]1O[C@H](CO)[C@@H](O)[C@H]1O [N^6 -methyladenosine]
- affinity/activity at A1 receptors, in words (A1 adenosine receptors): low activity

Structure (SMILES): COc1cc(CCNc2ncnc3c2ncn3[C@@H]2O[C@H](CO)[C@@H](O)[C@H]2O)cc(OC)c1OC [N^6-2-(3,4,5-trimethoxyphenylethyl)-]
- agonist potency at PC12 A2 receptors, in words [11]: more potent of the series

Structure (SMILES): OC[C@H]1O[C@@H](n2cnc3c(NCCc4cccnc4)ncnc32)[C@H](O)[C@@H]1O [N^6-2-(3-pyridylethyl)-]
- agonist potency at PC12 A2 receptors, in words [11]: more potent of the series

Structure (SMILES): OC[C@H]1O[C@@H](n2cnc3c(NCCc4ccsc4)ncnc32)[C@H](O)[C@@H]1O [N^6-2-(3-thienylethyl)-]
- agonist potency at platelet A2 receptors, in words [10]: more potent of the N^6 -substituted adenosines

Structure (SMILES): OC[C@H]1O[C@@H](n2cnc3c(NCCc4ccccc4)ncnc32)[C@H](O)[C@@H]1O [N^6-2-phenethyl-]
- agonist potency at PC12 A2 receptors, in words [11]: more potent of the series

Structure (SMILES): CC1(Nc2ncnc3c2ncn3[C@@H]2O[C@H](CO)[C@@H](O)[C@H]2O)CCCC1 [N^6-(1-methylcyclopentyl)adenosine]
- affinity/activity at A1 receptors, in words (A1 adenosine receptors): reduced compared to N^6 -cyclopentyladenosine

Structure (SMILES): C[C@H](Cc1ccccc1)Nc1ncnc2c1ncn2[C@@H]1O[C@H](CO)[C@@H](O)[C@H]1O [R-PIA, N^6 -R-1-phenyl-2-propyladenosine]
- affinity/activity at A1 receptors, in words (A1 adenosine receptors): very high affinity for A1 adenosine receptors
- agonist potency at platelet A2 receptors, in words [10]: more potent of the N^6 -substituted adenosines
- agonist potency at PC12 A2 receptors, in words [11]: more potent of the series
